# Measurements from patent publication US20240368115A1, “REGULATOR CONTAINING TRICYCLIC DERIVATIVE, PREPARATION METHOD THEREFOR AND APPLICATION THEREOF” (SHUJING BIOPHARMA CO., LTD, priority 2021, published 2024).
# Assays:
# Format in all cases: cell-based
# [1] = target: T1, 5-HT1A receptor (Homo sapiens, UniProt P08908); assay: 5-HT1A receptor cAMP agonist test; conditions: HEK293 cell strain stably expressing 5-HT1A receptor; for EC50: cAMP, forskolin 2.5×10^−7 M; for 5-HT1A Max Act %: positive control serotonin 10^−6 M
# T1 construct: expressed in transfected cells
# T1 sequence (P08908 1-422): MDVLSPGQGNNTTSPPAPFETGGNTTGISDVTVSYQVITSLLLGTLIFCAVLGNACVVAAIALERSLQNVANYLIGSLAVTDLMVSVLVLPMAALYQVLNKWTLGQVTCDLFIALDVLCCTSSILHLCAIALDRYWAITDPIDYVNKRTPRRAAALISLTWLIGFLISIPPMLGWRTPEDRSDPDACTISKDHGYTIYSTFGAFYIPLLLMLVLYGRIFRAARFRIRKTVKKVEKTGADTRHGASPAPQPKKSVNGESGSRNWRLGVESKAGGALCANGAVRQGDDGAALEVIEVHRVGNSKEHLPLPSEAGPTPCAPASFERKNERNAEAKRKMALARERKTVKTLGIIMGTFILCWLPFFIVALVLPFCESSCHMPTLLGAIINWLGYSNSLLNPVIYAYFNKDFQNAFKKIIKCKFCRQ
# Excerpt: (§1) • cAMP detection kit was purchased from Cisbio; an HEK293 cell strain stably expressing 5-HT1A receptor was constructed by Shanghai Shujing Biopharma Co., Ltd.; serotonin, forskolin, and IBMX were purchased from Sigma; ProxiPlate-384 well plates were purchased from PerkinElmer; HBSS was purchased from Thermo Fisher Scientific.
# (§2) • (1) The cultured cells were digested with trypsin, and the cell suspension was washed with HBSS buffer after the digestion was terminated. The medium was removed by centrifugation at 200×g. The pellet was resuspended in an appropriate amount of experimental buffer, and 20 μL of cell suspension was counted using a cell counter and diluted to 0.4×10^6 cells/mL. • (2) 5 μL of cell suspension was added to a ProxiPlate-384 well plate (2×10^3 cells/well). • (3) Test compounds were serially diluted in an experimental buffer, and 5 μL of the mixed solution was transferred to the reaction plate with Bravo.
# [2] = target: T2, D2L receptor (Homo sapiens, UniProt P14416); assay: D2L receptor cAMP agonist test; conditions: HEK293 cell strain stably expressing D2L receptor; for EC50: cAMP, forskolin 0.5 μM; for D2L Max Act %: positive control dopamine 1 μM
# T2 construct: expressed in transfected cells
# T2 sequence (P14416 whole entry): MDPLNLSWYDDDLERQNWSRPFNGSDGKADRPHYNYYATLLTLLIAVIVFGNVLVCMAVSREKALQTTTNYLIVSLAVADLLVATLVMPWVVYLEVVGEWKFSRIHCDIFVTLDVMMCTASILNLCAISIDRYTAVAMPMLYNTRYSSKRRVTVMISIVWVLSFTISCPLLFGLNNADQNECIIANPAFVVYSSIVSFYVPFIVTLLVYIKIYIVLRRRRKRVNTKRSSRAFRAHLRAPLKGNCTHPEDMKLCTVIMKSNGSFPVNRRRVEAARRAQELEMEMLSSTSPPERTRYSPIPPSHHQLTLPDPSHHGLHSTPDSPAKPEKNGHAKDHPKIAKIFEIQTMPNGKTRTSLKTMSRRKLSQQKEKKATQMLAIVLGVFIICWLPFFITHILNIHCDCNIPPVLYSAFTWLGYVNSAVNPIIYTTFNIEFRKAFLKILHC
# Experimental: as §1, with “D2L” for “5-HT1A”, “dopamine,” for “serotonin,”
# • (1) The cryopreserved cells were thawed in a water bath at 37° C., the cell suspension was resuspended in HBSS buffer, and the mixed solution was centrifuged at 750 rpm for 5 min to remove the medium. The pellet was resuspended in an appropriate amount of experimental buffer, and an appropriate amount of cell suspension was diluted to 0.4×10^6 cells/mL. • (2) 5 μL of cell suspension was added to a ProxiPlate-384 well plate (2×10^3 cells/well), and the plate was centrifuged at 1000 rpm for 1 min. • (3) Test compounds were serially diluted in an experimental buffer, and 5 μL of the mixed solution was transferred to the reaction plate with Bravo.
# [3] = target: 5-HT2A receptor (Homo sapiens, UniProt P28223); assay: Calcium flux test for 5-HT2A receptor; conditions: CHO cell strain stably expressing 5-HT2A receptor; for IC50: calcium flux, antagonism of serotonin; for 5-HT2A Max Inh %: positive control ketanserin 10^−7 M
# 5-HT2A receptor, sequence (P28223 whole entry): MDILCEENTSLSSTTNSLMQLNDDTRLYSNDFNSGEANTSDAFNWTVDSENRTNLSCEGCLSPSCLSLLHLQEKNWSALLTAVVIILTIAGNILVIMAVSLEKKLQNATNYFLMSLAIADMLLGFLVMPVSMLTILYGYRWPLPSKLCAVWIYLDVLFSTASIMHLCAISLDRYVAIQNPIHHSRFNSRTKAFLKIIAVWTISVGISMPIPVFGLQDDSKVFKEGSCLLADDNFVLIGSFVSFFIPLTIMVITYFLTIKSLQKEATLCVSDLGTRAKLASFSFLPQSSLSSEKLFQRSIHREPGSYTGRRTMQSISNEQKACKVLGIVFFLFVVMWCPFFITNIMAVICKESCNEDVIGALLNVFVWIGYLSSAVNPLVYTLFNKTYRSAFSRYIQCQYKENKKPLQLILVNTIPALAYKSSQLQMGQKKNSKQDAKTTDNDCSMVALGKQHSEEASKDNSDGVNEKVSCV
# Experimental: • Fluo-4 calcium flux detection kit was purchased from Invitrogen; a CHO cell strain stably expressing 5-HT2A receptor was purchased from PerkinElmer; serotonin was purchased from Sigma; ketanserin was purchased from Targetmol; polylysine-coated 384-well plates and 384-well compound plates were purchased from Greiner Bio-One. Molecular Device FLIPR, Agilent Bravo liquid workstation, and Countstar BioTech cell counter.
# • (1) The cryopreserved cells were rapidly thawed in a water bath at 37° C., and the cells were resuspended in a plating medium. The cryopreservation solution was removed by centrifugation at 200×g. The pellet was resuspended in an appropriate amount of plating medium, 20 μL of cell suspension was counted using a cell counter, and the cell density was diluted to 1×10^6 cells/mL. • (2) 20 μL of cell suspension was added to a polylysine-coated 384-well plate (2×10^4 cells/well). • (3) The cell plate was incubated in a 37° C./5% CO2 incubator for 16-20 h.
# • (1) The cell plate was taken out from the incubator and centrifuged at 100×g to remove the medium. 20 μL of experimental buffer was added, and then 20 μL of 2× fluorescent probe solution was added. […] The cell plate and agonist positive compound plate were placed into the FLIPR instrument, the detection program was run, 10 μL of the diluted compound was transferred from the agonist compound plate to the cell plate, and the fluorescence signal was read. […] The cell plate and test compound plate were placed in the FLIPR instrument, the detection program was run, and 10 μL of the diluted compound was transferred from the test compound plate to the cell plate. […] The test compound plate was then taken out, and the agonist positive compound plate with 6×EC50 concentration was placed.
# Inhibition rate (Inhibition %)=(negative control reading value−compound reading value)/(negative control reading value−positive control reading value)×100%
# [4] = target: T3, D2S receptor (Homo sapiens, UniProt P14416); assay: D2S receptor cAMP agonist test; conditions: HEK293 cell strain stably expressing D2S receptor; for EC50: cAMP, forskolin 5×10^−7 M; for D2S Max Act %: positive control dopamine 1×10^−7 M
# T3 construct: expressed in transfected cells
# T3 sequence (P14416 1-414 isoform P14416-2): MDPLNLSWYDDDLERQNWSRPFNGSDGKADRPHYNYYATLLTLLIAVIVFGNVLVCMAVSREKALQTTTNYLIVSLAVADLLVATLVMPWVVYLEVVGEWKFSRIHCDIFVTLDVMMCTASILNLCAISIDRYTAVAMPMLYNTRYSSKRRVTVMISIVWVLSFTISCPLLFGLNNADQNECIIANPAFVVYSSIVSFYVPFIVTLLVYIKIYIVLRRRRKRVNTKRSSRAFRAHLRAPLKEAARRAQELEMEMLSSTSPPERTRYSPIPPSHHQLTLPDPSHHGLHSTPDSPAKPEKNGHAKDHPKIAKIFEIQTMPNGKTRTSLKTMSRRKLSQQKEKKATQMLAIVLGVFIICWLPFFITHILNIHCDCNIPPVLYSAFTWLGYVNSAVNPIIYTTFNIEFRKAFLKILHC
# Excerpt: as §1, with “cAMP” for “• cAMP”, “D2S” for “5-HT1A”, “dopamine,” for “serotonin,”
# as §2, with “0.6×10^6” for “0.4×10^6”, “(3×10^3” for “(2×10^3”
Structure (SMILES),EC50 [1] [nM],5-HT1A Max Act % [1] [%],EC50 [2] [nM],D2L Max Act % [2] [%],IC50 [3] [nM],5-HT2A Max Inh % [3] [%],EC50 [4] [nM],D2S Max Act % [4] [%]
O=C1Nc2cc(OCCCCN3CCN(c4ccc(Cl)s4)CC3)ccc2C2CC12 (stereo not drawn) [Example 51],73.4,79.4,1.53,82.6,2530,99.8,0.76,111.1
"O=C1Nc2cc(OCCCCN3CCN(c4cccc(Cl)c4O)CC3)ccc2C2CC12 (stereo not drawn) [Example 39, 5-(4-(4-(3-Chloro-2-hydroxyphenyl)piperazin-1-yl)butoxy)-1,1a,3,7b-tetrahydro-2H-cyclopropa[c]quinolin-2-one]",,,,,2930,94.2,,
"O=C1Nc2cc(OCCCCN3CCN(c4cccc5[nH]ccc45)CC3)ccc2C2CC12 (stereo not drawn) [Example 52, 5-(4-(4-(1H-Indol-4-yl)piperazin-1-yl)butoxy)-1,1a,3,7b-tetrahydro-2H-cyclopropa[c]quinolin-2-one]",,,0.31,65.3,1590,99.9,,
"O=C1Nc2cc(OCCCCN3CCN(c4cccc5c4OCC5)CC3)ccc2C2CC12 (single isomer, unassigned) [Example 44-P2]",7.05,48.0,0.22,53.9,290,99.7,0.92,89.1
"O=C1Nc2cc(OCCCCN3CCN(c4cccc5c4OCC5)CC3)ccc2C2CC12 (single isomer, unassigned) [Example 44-P1]",12.7,49.5,0.26,45.9,192,99.6,0.98,96.8
"O=C1Nc2cc(OCCCCN3CCN(c4cccc5c4OCC5)CC3)ccc2C2CC12 (stereo not drawn) [Example 44, 5-(4-(4-(2,3-Dihydrobenzofuran-7-yl)piperazin-1-yl)butoxy)-1,1a,3,7b-tetrahydro-2H-cyclopropa[c]quinolin-2-one]",11.2,58.9,0.37,44.7,260,99.7,0.93,91.0
"O=C1Nc2cc(OCCCCN3CCN(c4cccc5ccsc45)CC3)ccc2C2CC12 (stereo not drawn) [Example 48, 5-(4-(4-(Benzo[b]thiophen-7-yl)piperazin-1-yl)butoxy)-1,1a,3,7b-tetrahydro-2H-cyclopropa[c]quinolin-2-one]",366,55.2,0.49,49.0,2410,100.5,0.89,114.8
"O=C1Nc2cc(OCCCCN3CCN(c4cccc5c4CCC5)CC3)ccc2C2CC12 (single isomer, unassigned) [Example 43-P1]",194,68.3,0.9,37.9,853,100.7,1.3,123.1
"O=C1Nc2cc(OCCCCN3CCN(c4cccc5c4CCC5)CC3)ccc2C2CC12 (single isomer, unassigned) [Example 43-P2]",92.4,60.6,0.25,35.7,1130,96.6,0.92,125.3
"O=C1Nc2cc(OCCCCN3CCN(c4cccc5c4CCC5)CC3)ccc2C2CC12 (stereo not drawn) [Example 43, 5-(4-(4-(2,3-Dihydro-1H-inden-4-yl)piperazin-1-yl)butoxy)-1,1a,3,7b-tetrahydro-2H-cyclopropa[c]quinolin-2-one]",158,67.7,0.3,42.8,971,100.3,0.92,134.9
"O=C1Nc2cc(OCCCCN3CCN(c4cccc5c4CC(F)(F)C5=O)CC3)ccc2C2CC12 (stereo not drawn) [Example 47, 5-(4-(4-(2,2-difluoro-1-one-2,3-dihydro-1H-inden-4-yl)piperazin-1-yl)butoxy)-1,1a,3,7b-tetrahydro-2H-cyclopropa[c]quinolin-2-one]",207,75.8,0.84,35.9,268,96.0,0.97,102.9
"O=C1Nc2cc(OCCCCN3CCN(c4cccc(O)c4Cl)CC3)ccc2C2CC12 (stereo not drawn) [Example 38, 5-(4-(4-(2-Chloro-3-hydroxyphenyl)piperazin-1-yl)butoxy)-1,1a,3,7b-tetrahydro-2H-cyclopropa[c]quinolin-2-one]",,,1.39,32.3,4850,98.1,0.88,92.4
